Experimental data from ChEMBL document CHEMBL3632597, “Synthesis and biological evaluation of 5-(fluoro-substituted-6-methylpyridin-2-yl)-4-([1,2,4]triazolo[1,5-a]pyridin-6-yl)imidazoles as inhibitors of transforming growth factor-β type I receptor kinase” (Bioorg Med Chem Lett, 2015).

Tests used:
TGF-beta receptor type-1 = target: T1, TGF-beta receptor type-1 (Homo sapiens, UniProt P36897); assay: Inhibition of human recombinant GST-fused ALK5 expressed in Sf9 insect cells using casein as substrate by proprietary radioisotopic protein kinase assay
T1 sequence (P36897 whole entry): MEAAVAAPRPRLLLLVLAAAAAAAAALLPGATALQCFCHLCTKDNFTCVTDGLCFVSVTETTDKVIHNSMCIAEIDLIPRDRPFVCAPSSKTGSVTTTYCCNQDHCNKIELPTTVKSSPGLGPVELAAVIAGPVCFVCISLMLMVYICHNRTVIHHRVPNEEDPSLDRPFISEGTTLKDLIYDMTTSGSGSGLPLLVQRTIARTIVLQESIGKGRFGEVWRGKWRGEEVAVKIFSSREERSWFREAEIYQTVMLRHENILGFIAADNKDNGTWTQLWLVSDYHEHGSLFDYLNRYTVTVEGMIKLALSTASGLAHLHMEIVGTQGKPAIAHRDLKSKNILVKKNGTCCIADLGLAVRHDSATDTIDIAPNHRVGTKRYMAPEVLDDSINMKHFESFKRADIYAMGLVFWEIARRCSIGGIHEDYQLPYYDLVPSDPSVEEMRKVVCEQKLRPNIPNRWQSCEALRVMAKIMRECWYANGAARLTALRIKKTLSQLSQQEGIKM

[1] = target: Mitogen-activated protein kinase 14 (Homo sapiens, UniProt Q16539); assay: Inhibition of human recombinant p38alpha expressed in Escherichia coli using ATF2 as substrate by proprietary radioisotopic protein kinase assay
Sequence of Mitogen-activated protein kinase 14 (Q16539 whole entry): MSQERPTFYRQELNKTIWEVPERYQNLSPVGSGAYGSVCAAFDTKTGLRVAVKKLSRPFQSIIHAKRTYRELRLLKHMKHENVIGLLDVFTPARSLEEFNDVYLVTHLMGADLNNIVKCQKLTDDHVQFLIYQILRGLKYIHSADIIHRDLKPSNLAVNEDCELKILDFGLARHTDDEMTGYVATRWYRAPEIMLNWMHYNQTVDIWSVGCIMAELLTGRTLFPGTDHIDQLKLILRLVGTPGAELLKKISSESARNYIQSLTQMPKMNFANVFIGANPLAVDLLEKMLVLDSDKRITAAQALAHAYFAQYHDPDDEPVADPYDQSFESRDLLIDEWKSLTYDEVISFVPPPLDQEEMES

Row | SMILES | IC50 (TGF-beta receptor type-1) [nM] | IC50 [1] [nM]
1 | Cc1cc(F)cc(-c2[nH]c(CNc3ccccc3)nc2-c2ccc3ncnn3c2)n1 | 72.5 | > 10000
2 | Cc1nc(-c2[nH]c(CNc3ccccc3F)nc2-c2ccc3ncnn3c2)ccc1F | 12.5 | 3370
3 | Cc1nc(-c2[nH]c(CNc3cccc(C(N)=O)c3)nc2-c2ccc3ncnn3c2)ccc1F | 10.8 | 1480
4 | Cc1cc(F)cc(-c2[nH]c(CNc3ccccc3F)nc2-c2ccc3ncnn3c2)n1 | 41.9 | > 10000
5 | Cc1nc(-c2[nH]c(CNc3ccccc3)nc2-c2ccc3ncnn3c2)ccc1F | 9.23 | 2040
6 | C=Cc1cccc(NCc2nc(-c3ccc4ncnn4c3)c(-c3ccc(F)c(C)n3)[nH]2)c1 | 13.7 | 1810

Now those with a lower IC50 [1], led by results:

Row | IC50 (TGF-beta receptor type-1) [nM] | IC50 [1] [nM] | SMILES
7 | 7.68 | 1240 | Cc1nc(-c2[nH]c(CNc3cccc(C#N)c3)nc2-c2ccc3ncnn3c2)ccc1F
8 | 12.1 | 766 | Cc1ccc(F)c(-c2[nH]c(CNc3ccccc3F)nc2-c2ccc3ncnn3c2)n1
9 | – | 405 | Cc1cccc(-c2nn3c(c2-c2ccnc4ccc(C(N)=O)cc24)CCC3)n1 [GALUNISERTIB]
10 | 9.76 | 399 | Cc1ccc(F)c(-c2[nH]c(CNc3ccccc3)nc2-c2ccc3ncnn3c2)n1
11 | 11 | 251 | Cc1ccc(F)c(-c2[nH]c(CNc3cccc(C(N)=O)c3)nc2-c2ccc3ncnn3c2)n1
12 | 9.23 | 209 | Cc1ccc(F)c(-c2[nH]c(CNc3cccc(C#N)c3)nc2-c2ccc3ncnn3c2)n1
13 | 9.81 | 171 | C=Cc1cccc(NCc2nc(-c3ccc4ncnn4c3)c(-c3nc(C)ccc3F)[nH]2)c1
